Where a SMILES comes first, the peptide text is derived from it. Bridges are numbered along the chain shown (N, C = ends). [ ]: non-standard residue; d: D form. dPhe(4-CF3) = N[C@H](Cc1ccc(C(F)(F)F)cc1)C(=O)O; dTrp(6-F) = N[C@H](Cc1c[nH]c2cc(F)ccc12)C(=O)O; S8 = C=CCCCCCC[C@](C)(N)C(=O)O; R5 = C=CCCC[C@@](C)(N)C(=O)O
Assays:
[1] = molecular target: Mdm2 (1-125) (Homo sapiens, UniProt Q00987); assay: Competitive fluorescence anisotropy / FP binding assay, Mdm2; settings: FP competition assay
[2] = molecular target: T1, Mdm4 (Homo sapiens, UniProt O15151); assay: Competitive fluorescence anisotropy / FP binding assay, Mdm4; settings: FP competition assay
T1 sequence (O15151 1-490): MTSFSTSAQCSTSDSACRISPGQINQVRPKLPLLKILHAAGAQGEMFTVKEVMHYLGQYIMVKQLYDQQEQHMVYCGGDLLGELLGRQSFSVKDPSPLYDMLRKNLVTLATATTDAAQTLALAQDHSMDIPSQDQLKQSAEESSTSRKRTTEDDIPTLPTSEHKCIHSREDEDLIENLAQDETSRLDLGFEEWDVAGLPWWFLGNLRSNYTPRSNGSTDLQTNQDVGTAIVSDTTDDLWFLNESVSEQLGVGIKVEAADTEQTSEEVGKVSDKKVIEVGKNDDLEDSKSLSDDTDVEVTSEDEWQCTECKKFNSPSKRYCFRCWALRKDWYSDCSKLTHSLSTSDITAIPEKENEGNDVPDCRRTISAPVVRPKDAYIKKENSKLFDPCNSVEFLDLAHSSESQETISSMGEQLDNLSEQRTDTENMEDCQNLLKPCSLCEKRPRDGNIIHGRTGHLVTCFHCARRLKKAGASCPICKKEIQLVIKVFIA

[3] = molecular target: human Mdm2 protein (amino acids 1–125) (Homo sapiens, UniProt Q00987); assay: Isothermal titration calorimetry; type: binding; settings: PBS pH 7.2, 3% DMSO, 0.001% Tween-20, duplicates

Binding to Mdm2 in the FP assay [1]	Binding to Mdm4 in the FP assay [2]	ITC enthalpy of binding (ΔH) to Mdm2 [3] [kcal/mol]	SMILES
no binding	displayed no binding		CC(C)C[C@@H](NC(=O)[C@@H](CC(C)C)NC(=O)[C@@]1(C)CCCC=CCCCCCC[C@](C)(NC(=O)[C@H](N)[C@H](C)O)C(=O)N[C@H](Cc2c[nH]c3cc(F)ccc23)C(=O)N[C@H](Cc2ccc(O)cc2)C(=O)N[C@H](C)C(=O)N[C@H](CC(N)=O)C(=O)N[C@H](Cc2ccc(C(F)(F)F)cc2)C(=O)N[C@H](CCC(=O)O)C(=O)N1)C(=O)N[C@H](CCCNC(=N)N)C(N)=O [^dPMI-δ(2-9)] (H-[dT][S8][dTrp(6-F)][dY][dA][dN][dPhe(4-CF3)][dE][R5][dL][dL][dR]-NH2; staple 2-9; N-terminus and C-terminus assumed)
		-15.8	CC(C)C[C@@H](NC(=O)[C@@H](CC(C)C)NC(=O)[C@@H](CCCCN)NC(=O)[C@@H](CCC(=O)O)NC(=O)[C@@H](Cc1ccc(C(F)(F)F)cc1)NC(=O)[C@@H](CC(N)=O)NC(=O)[C@@]1(C)CCCC=CCCC[C@@](C)(N)C(=O)N[C@H](C)C(=O)N[C@H](Cc2c[nH]c3cc(F)ccc23)C(=O)N[C@H](Cc2ccc(O)cc2)C(=O)N1)C(=O)N[C@H](CCCNC(=N)N)C(N)=O [^dPMI-δ(1-5)]
